The values below come from patent publication US12129493B2, “Host cells and methods useful for producing unnatural terpenoids using a novel artificial metalloenzyme” (The Regents of the University of California, priority 2020, dated 2024).

Entries after “also recorded” stand apart in the source; their conditions may differ. Like-named read-outs stand apart in the source and are kept apart here.

Series [1] has as its system E. coli cells expressing the artificial biosynthetic pathway (pJBEI6410+pJHA170). As to the kind of experiment: Cell viability test with CFU (colony forming units) assay. Format: cell-based. Particulars: high concentration, 4 h exposure. How it is done:
9. Cell viability test with CFU (colony forming units) assay. E. coli cells co-transformed with pJBEI6410 and pJHA170 were grown as described in 7, except for the following steps. […] A portion of cell culture (1.4 mL) was transferred into Falcon 14 mL round-bottom tube. […] For the control group, only sterile ddH2O (1%, v/v) was added. The cultures were further incubated at 30° C., 200 rpm for 4 h. Then the cultures were diluted 10^5 times. Aliquots of diluted cell suspension (50 μL) were plated onto LB agar plates. The plates were incubated at 30° C. for 24 h. The colonies grown on the plates were manually counted and the percentage of viable cells in each group was calculated by normalizing the number of colonies grown in the control group as 100%.

In series [2] the target is apo-ascorbate peroxidase. The conditions noted are these: from literature (ref. 9); cited from earlier work.
Series [3] has as its target apo-myoglobin. The conditions noted are these: from literature (ref. 9); cited from earlier work.
In series [4] the target is T1, Sulfolobus CYP119 (cytochrome P450 119, parent sequence SEQ ID NO: 1), apo form, CYP119-141 mutant (C317G, T213G, V254L, L155W) (Sulfolobus acidocaldarius, UniProt Q55080, C317G/L155W/T213G/V254L).
T1 construct: made in house
The series can be described thus: Binding affinity of apo-CYP119 towards Ir(Me)MPIX/hemin (intrinsic fluorescence quenching, Benesi-Hildebrand). More on the design: species or system Sulfolobus solfataricus. The conditions noted are these: excitation 294 nm, 10 mM TRIS buffer pH 8.0, Benesi-Hildebrand analysis.
Description: Intrinsic fluorescence quenching;^8 Modified from a reported procedure, aliquots (10 μL) of metalloporphyrin stock solutions (in DMSO) were added to a solution containing 0.15 mg/L apo-CYP119 (CYP119-141 mutant, 800 μL, 10 mM TRIS buffer, pH 8.0). This addition caused the concentration of the protein to decrease from its initial value to a final concentration of 0.148 mg/L in the process. After each addition, the emission spectrum of CYP119 was recorded upon excitation at 294 nm. In quenching experiments, the concentration of the chromophore (CYP119 or porphyrin) was kept sufficiently low (<0.15) to ensure uniform light absorption throughout the sample and reduced inner filter effects. The fluorescence emission intensity was calculated as the integral of the emission spectrum in the recorded wavelength range (305-450 nm).

In series [5] the target is apo-myoglobin. Particulars: literature; cited from earlier work.
The target in series [6] is apo-ascorbate peroxidase. Particulars: literature; cited from earlier work.
Another series deals with E. coli BL21(DE3) cells. As to the kind of experiment: Evaluation of the effect of Ir(Me)MPIX and cyclopropyl limonene on cell growth (OD600). Format: cell-based, Escherichia coli. The conditions noted are these: 0, 0.1, 1, 10 μM Ir(Me)MPIX, M9-rich media, 30° C.
Another series deals with BL21(DE3) cells. The series can be described thus: Cytotoxicity of Ir(Me)MPIX and cyclopropyl limonene, cell growth by OD600. Particulars: for effect on cell growth: 0-10 μM. How it is done:
10. […] Individual colonies from freshly transformed plates (incubated at 30° C.) were inoculated into 2 mL M9-rich media supplemented with appropriate antibiotics. A 1:100 dilution of overnight cultures into 300 μL M9-rich media was performed in a 48-well plate. […] The OD600 values were recorded by a plate reader (F200 or F200pro, Tecan) set at 30° C.
Cyclopropyl limonene; BL21(DE3) cells co-transformed with pHug21 (coding for HUG system) and pJHA110 (coding for CYP119 mutant) were grown and cultivated as described above. The stock solution of cyclopropyl limonene in ethanol was added to the cell culture to give final concentration of 0, 0.2, 1, 5, 25 mg/L cyclopropyl limonene and 1% (v/v) ethanol. The OD600 values were recorded by a plate reader (F200 or F200pro, Tecan) set at 30° C.

Series [7] has as its system E. coli cells expressing limonene biosynthetic pathway. The series can be described thus: Effect of Ir(Me)MPIX addition on limonene titer. The series is classed as cell-based. Particulars: 0.1 μM Ir(Me)MPIX in DMSO. How it is done: 6. Limonene biosynthesis. Chemically competent BL21(DE3) (NEB) cells were transformed with a plasmid coding for MEV pathway enzymes to produce limonene from glucose in E. coli (pJBEI6410 or pJBEI6409). […] The cultures were grown overnight at 30° C. and 200 rpm for 18 h. In a 50 mL glass culture tube, 10 mL of M9-rich media was inoculated with 100 μL of overnight starter culture and incubated at 37° C. and 200 rpm to an OD600 of ˜1. Unless otherwise indicated, the cultures were then induced by adding 50 μM IPTG (final concentration), and 10% (v/v) dodecane was added to trap the limonene produced. Upon induction, the temperature was reduced to 30° C. and expressions were allowed to continue for 24 h at 200 rpm. An aliquot of the 100 μL dodecane overlay was diluted with 900 μL ethyl acetate containing 40 mg/L beta-pinene (beta-pinene as internal standard) and analyzed by GC-MS.

T1 sequence (Q55080 whole entry L155W/T213G/V254L/C317G): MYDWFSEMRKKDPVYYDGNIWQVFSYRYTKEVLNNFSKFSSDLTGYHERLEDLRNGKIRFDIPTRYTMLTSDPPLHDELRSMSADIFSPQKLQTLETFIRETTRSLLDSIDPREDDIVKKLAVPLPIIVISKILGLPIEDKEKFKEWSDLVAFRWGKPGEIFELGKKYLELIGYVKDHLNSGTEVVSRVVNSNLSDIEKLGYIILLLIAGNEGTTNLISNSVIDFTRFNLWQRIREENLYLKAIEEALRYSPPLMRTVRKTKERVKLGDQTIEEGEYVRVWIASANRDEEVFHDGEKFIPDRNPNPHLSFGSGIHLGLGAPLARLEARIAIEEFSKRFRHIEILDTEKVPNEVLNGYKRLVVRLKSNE

For the compound `CCOC(=O)C=[N+]=[N-]` [EDA, ethyl diazoacetate], the “toxicity to E. coli cells (viable cells)” value in series [1] is reported as “toxic”.

What is called Kd is the constant that tells how readily two partners part at equilibrium. For the compound `C=CC1=C(C)c2cc3[nH]c(cc4nc(cc5[nH]c(cc1n2)c(C)c5CCC(=O)O)C(CCC(=O)O)=C4C)c(C)c3C=C.[Fe+3]` [Fe(Cl)PPIX, reference compound], the values for the Kd (at apo-ascorbate peroxidase [2]; on apo-myoglobin [3]; in series [4]) were 190 nM, 600 nM and 1500 nM, respectively. In addition, the Kb in series [4] is reported as 6.7(0.7) × 10^5 M^−1.

For the compound `C=CC1=C(C)c2cc3[n-]c(cc4[n-]c(cc5nc(cc1n2)C(C)=C5C=C)c(C)c4CCC(=O)O)c(CCC(=O)O)c3C.[Cl-].[Fe+3]` [Fe(Cl)PPIX], the values for the Kd on apo-myoglobin [5] and on apo-ascorbate peroxidase [6] were 600 nM and 190 nM, respectively.

`CCC1=C(C)c2cc3[n-]c(cc4[n-]c(cc5nc(cc1n2)C(C)=C5CC)c(C)c4CCC(=O)O)c(CCC(=O)O)c3C.[CH3-].[Ir+3]` [Ir(Me)MPIX]: the “effect on growth of BL21(DE3) cells expressing the HUG system” value with E. coli BL21(DE3) cells was “little effect on the growth”. The “effect on growth of BL21(DE3) cells transformed with an empty vector pBbS5K” value with E. coli BL21(DE3) cells is reported as “little effect on the growth”. The “effect on cell growth” value in the series on BL21(DE3) cells (BL21(DE3) expressing the HUG system) and in the series on BL21(DE3) cells (BL21(DE3) with empty vector pBbS5K) was “little effect” in each case. Further, the “inhibition of cell growth” value in the series on BL21(DE3) cells (concentration range relevant for the study) is “did not inhibit cell growth”. The “effect on limonene titer” value in series [7] is “unaffected; also recorded: little impact”. Also, the Kb in series [4] was 4.2(0.3) × 10^5 M^−1. The Kd in [4] (read-out: Kd) is 2400 nM.
